Measurements from patent publication US10953032B2, “Cyclic dinucleotides as anticancer agents” (BRISTOL-MYERS SQUIBB COMPANY, priority 2017, dated 2021).
Read-outs that look alike come from different tables or passages of the source.

Columns and labels:
[1] = tested on: IRF3; assay: STING THP1 Reporter Assay, IRF pathway (secreted Lucia luciferase); format: cell-based; conditions: THP1-Dual cells, 10% human plasma, luciferase readout, 100% activation = 100 μM cGAMP, read-out: THP1 Reporter Assays EC50 (μM) IRF3
Text: (§1) THP1-Dual™ cells were derived from the human THP-1 monocyte cell line by stable integration of two inducible reporter constructs. To this end, THP1-Dual™ cells allow the simultaneous study of the NF-κB pathway, by monitoring the activity of SEAP, and the IRF pathway by assessing the activity of a secreted luciferase (Lucia). Both reporter proteins are readily measurable in the cell culture supernatant when using QUANTI-Blue™, a SEAP detection reagent, and QUANTI-Luc™, a luciferase detection reagent.
(§2) THP 1-Dual™ cells induce the activation of NF-κB in response to STING agonists. They also trigger the IRF pathway upon stimulation with STING agonists, such as cGAMP. Here, the THP-1-Dual cells were used to assess STING binders for function on the cellular level.
(§3) Serial dilutions of compounds in DMSO were added to low volume 384 well plates at 100 nl/well using an ECHO acoustic dispenser (Labcyte, model 550) to achieve final starting concentration of 100 μM in cell suspension. THP-1 Dual™ STING reporter cells (Invivogen, Dual cells cat #THPD-nfis) were added to the plates with compounds at 15,000 cells in 10 μL per well in RPMI media (Gibco, cat #11875) containing 10% human plasma in a low volume 384-well black wall clear bottom tissue culture plate (Corning, cat #3542) for SEAP assay and low volume solid white plate (Corning, cat #3826) for luciferase assay. One column of the plate was reserved for treatment with cGAMP at 100 μM for 100% activation calculation and one column for no treatment (DMSO only) for baseline activation. Plates were then incubated in 37° C. incubator at 5% CO2 for 20 hours.
(§4) In the SEAP assay, […] 2× QuantiBlue (Invivogen, cat #Rep-qb2) is added to 384 well black plates seeded with THP1 cells and incubated at 37° C. for 2 hours. Plates were read on the Envision (Perkin Elmer) at 620 nm wavelength (OD620). In the luciferase assay, 5 μl of Quantiluc (Invivogen, Rep-qlc2) is added to white 384 well plates seeded with THP1 cells and read at 5 minutes on the Envision (Perkin Elmer) using a luminescence protocol (RLU). For both cell lines, 100% activation was determined by value (RLU) of THP-1 Dual STING cells stimulated with 100 μM cGAMP (Invivogen, cat #TLRL-NACGA23-5).

[2] = tested on: NFkB; assay: STING THP1 Reporter Assay, NF-κB pathway (SEAP); format: cell-based; conditions: THP1-Dual cells, 10% human plasma, SEAP readout (OD620), 100% activation = 100 μM cGAMP, read-out: THP1 Reporter Assays EC50 (μM) NFkB
Text: as §1, §2, §3, §4

[3] = target: T1, STING WT: His-TVMV-S-hSTING(155-341)-H232R (Homo sapiens, UniProt Q86WV6, H232R); assay: STING HTRF Binding Assay (time resolved FRET competition), STING WT; conditions: 20 nM His-tagged STING cytoplasmic domain WT, 200 nM fluorescein-labeled cGAMP analog probe, one hour; read-out: HTRF Binding Assays EC50 (μM) STING WT
T1 construct: STING WT: His-TVMV-S-hSTING(155-341)-H232R
T1 sequence (Q86WV6 with tags, fused parts or gaps H232R): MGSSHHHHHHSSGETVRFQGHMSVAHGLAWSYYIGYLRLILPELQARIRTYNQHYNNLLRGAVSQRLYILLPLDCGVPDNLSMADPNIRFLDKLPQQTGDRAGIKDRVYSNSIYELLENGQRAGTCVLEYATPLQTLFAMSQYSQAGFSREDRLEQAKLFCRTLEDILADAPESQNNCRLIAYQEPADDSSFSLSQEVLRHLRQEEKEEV
Method: (§5) A time resolved FRET-based competition binding assay was used to assess test article binding to STING WT and STING AQ. His-tagged STING cytoplasmic domain (WT or AQ) at a concentration of 20 nM was incubated with 2.5 nM Tb-labeled anti-His antibody, test compound, and fluorescein-labeled cGAMP analog probe (BioLog cat. no. C195) at a concentration of 200 nM (STING WT) or 40 nM (STING AQ) in PBS containing 0.005% Tween-20 and 0.1% BSA for one hour. Fluorescence at 495 nm and 520 nm was measured using an EnVision microplate reader to quantify FRET between Tb-labeled anti-His antibody and fluorescein-labeled probe. Background was defined as the signal obtained in the absence of STING protein, and background subtracted FRET ratios were normalized to the maximum signal obtained in the absence of test compound. These values were converted to a percent inhibition. Percent inhibition was determined for test compounds at 11 concentrations. The IC50, defined as the concentration of competing test compound needed to reduce specific binding of the probe by 50%, was calculated using the 4 parameter logistic equation to fit the data

[4] = target: T2, STING AQ: His-TVMV-S-hSTING(155-341)-G230A-R293Q (Homo sapiens, UniProt Q86WV6, G230A/H232R/R293Q); assay: STING HTRF Binding Assay (time resolved FRET competition), STING AQ; conditions: 20 nM His-tagged STING cytoplasmic domain AQ, 40 nM fluorescein-labeled cGAMP analog probe, one hour; read-out: HTRF Binding Assays EC50 (μM) STING AQ
T2 construct: STING AQ: His-TVMV-S-hSTING(155-341)-G230A-R293Q
T2 sequence (Q86WV6 with tags, fused parts or gaps G230A/H232R/R293Q): as the sequence (Q86WV6 with tags, fused parts or gaps H232R) above, with G99A, R162Q counted along it
Method: as §5

Row | Compound | EC50 ([1]; Homo sapiens, THP-1, 20 h) [µM] | EC50 ([2]; Homo sapiens, THP-1, 20 h) [µM] | EC50 [3] [µM] | EC50 [4] [µM] | EC50 ([1]; 20 hours) [µM] | EC50 ([2]; 20 hours) [µM]
1 | Nc1ncnc2c1ncn2[C@@H]1O[C@@H]2COP(=O)(O)O[C@@H]3[C@H](O)[C@@H](COP(=O)(O)O[C@H]2[C@H]1F)O[C@H]3n1cnc2c(=O)[nH]c3nccn3c21 [Example 2, (1R,6R,8R,9R,10R,15R,17R,18R)-8-(6-amino-9H-purin-9-yl)-9-fluoro-3,12,18-trihydroxy-17-{4-oxo-1H,4H,5H-imidazo[2,1-b]purin-1-yl}-2,4,7,11,13,16-hexaoxa-3λ^5,12λ^5-diphosphatricyclo[13.2.1.0^6,10]octadecane-3,12-dione] | 23 | 59 | 0.03 | 0.002 |  | 
2 | Nc1ncnc2c1ncn2[C@@H]1O[C@@H]2COP(=O)(O)O[C@@H]3[C@H](O)[C@@H](COP(=O)(O)O[C@H]2[C@H]1N)O[C@H]3n1cnc2c(=O)[nH]c3nccn3c21 [Example 3, (1R,6R,8R,9R,10S,15R,17R,18R)-9-amino-8-(6-amino-9H-purin-9-yl)-3,12,18-trihydroxy-17-{4-oxo-1H,4H,5H-imidazo[2,1-b]purin-1-yl}-2,4,7,11,13,16-hexaoxa-3λ^5,12λ^5-diphosphatricyclo[13.2.1.0^6,10]octadecane-3,12-dione] | > 100 | > 100 | 1.6 | 0.3 |  | 
3 | Nc1ncnc2c1ncn2[C@@H]1O[C@@H]2COP(=O)(S)O[C@@H]3[C@H](O)[C@@H](COP(=O)(S)O[C@H]2[C@H]1F)O[C@H]3n1cnc2c(=O)[nH]c3nccn3c21 (single isomer, unassigned) [Example 1-1] |  |  | 0.19 | 0.07 | > 100 | > 100
4 | Nc1ncnc2c1ncn2[C@@H]1O[C@@H]2COP(=O)(S)O[C@@H]3[C@H](O)[C@@H](COP(=O)(S)O[C@H]2[C@H]1F)O[C@H]3n1cnc2c(=O)[nH]c3nccn3c21 (single isomer, unassigned) [Example 1-2] |  |  | 0.02 | 0.004 | 10 | 21
5 | Nc1ncnc2c1ncn2[C@@H]1O[C@@H]2COP(=O)(S)O[C@@H]3[C@H](O)[C@@H](COP(=O)(S)O[C@H]2[C@H]1F)O[C@H]3n1cnc2c(=O)[nH]c3nccn3c21 (single isomer, unassigned) [Example 1-3] |  |  | 0.03 | 0.006 | 12 | 27
6 | Nc1ncnc2c1ncn2[C@@H]1O[C@@H]2COP(=O)(S)O[C@@H]3[C@H](O)[C@@H](COP(=O)(S)O[C@H]2[C@H]1F)O[C@H]3n1cnc2c(=O)[nH]c3nccn3c21 (single isomer, unassigned) [Example 1-4] |  |  | 0.003 | < 0.001 | 1 | 3
